# Earlier results as cited in patent publication US12257246B2, “Composition of 2,4,6-trifluoro-n-[6-(1-methyl-piperidin-4-carbonyl)-pyridin-2-yl[-benzamide” (CoLucid Pharmaceuticals, Inc., priority 2009, dated 2025).
# System: other 5-HT1 receptor subtypes (5-HT1A, 5-HT1B, 5-HT1D, 5-HT1E)
# Details: cited from earlier work
structure (smiles),measurement,value
"CN1CCC(C(=O)c2cccc(NC(=O)c3c(F)cc(F)cc3F)n2)CC1 [Compound I, 2,4,6-trifluoro-N-[6-(1-methyl-piperidin-4-ylcarbonyl)-pyridin-2-yl]-benzamide]",affinity higher for 5-HT1F receptors than for other 5-HT1 receptor subtypes,more than 450 fold
